# In the NIST ThermoML archive (doi:10.1016/j.fluid.2007.10.010):
# Numbers after ± are expanded uncertainties.
# Assays:
# [1] = 298.15 K; 101.33 kPa; Liquid; Vibrating tube method
# [2] = refractive index (Na D-line) (dimensionless); conditions: 298.15 K; 101.33 kPa; Liquid; Standard Abbe refractometry
SMILES,mass density [1] [kg/m3],refractive index [2]
CCCCCCCCn1cc[n+](C)c1.O=S(=O)([N-]S(=O)(=O)C(F)(F)F)C(F)(F)F,1320.76 ± 12,1.43331 ± 0.0012
CCCCCCC [heptane],679.466 ± 0.26,1.38517 ± 0.00068
CCCCCCCCCCCCCCCC [hexadecane],771.15 ± 0.3,1.43232 ± 0.0007
CCCCCC [hexane],655.06 ± 0.31,1.37287 ± 0.0007
c1ccsc1 [thiophene],1058.5 ± 0.23,1.52581 ± 0.00068
